Laboratory results published in patent publication US20240173419A1, “CDK2 DEGRADERS AND USES THEREOF” (Kymera Therapeutics, Inc., priority 2022, published 2024).

Biological target: T1, CDK2 (Homo sapiens, UniProt P24941)
T1 construct: endogenous in cells; host or cells: MKN1 cells
Test: CDK2 degradation in MKN1 cells (AlphaLISA)
Assay type: cell-based
Set-up: key to CDK2 degradation 14 h: Mean external-Abs DC50 (nM): A (<100 nM); B (≥100-500 nM); C (>500-1000 nM); D (>1000 nM); E (not achieved)
Settings: for DC50: read-out: CDK2 degradation 14 h: Mean external-Abs DC50
In short: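 DC50 from four-parameter logistic fit of AlphaLISA CDK2 signal, corrected for no-cell wells. Lysates came from MKN1 cells, 2e4 per well, exposed 14 h at 37° C to compound at 0.001 nM-10 μM (1:5 series, 11 doses) in 0.1% DMSO.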

Row | Compound | CDK2 degradation 14 h: Average Dmax % (14 h incubation) | DC50 (14 h incubation) [nM] | CDK2 degradation 14 h: Mean external-Abs DC50 (nM) (14 h incubation) | Dmax (MKN-1, 14 h incubation) [%]
1 | Cc1cc(S(=O)(=O)N2CCC(CN(C)C3CCN(c4cccn5c(N6CCC(=O)NC6=O)cnc45)CC3)CC2)ccc1Nc1ncc2cc(Cl)c(=O)n(C3CCCC3)c2n1 [I-414] | B (B (>50% -75%)) | 100 to 500 | – | –
2 | Cc1cc(S(=O)(=O)C2CC3(CCN(CC4CCN(c5cccc6c5n(C)c(=O)n6C5CCC(=O)NC5=O)CC4)CC3)C2)ccc1Nc1ncc(C(F)(F)F)c(N2CCCC(C)(O)C2)n1 (stereo not shown) [I-819] | B (B (>50% -75%)) | 500 to 1000 | – | –
3 | COc1cc(N2CCC(CN3CCC4(CC3)CC(S(=O)(=O)c3ccc(Nc5ncc6cc(Cl)c(=O)n(C7CCCC7)c6n5)c(C)c3)C4)CC2)ccc1NC1CCC(=O)NC1=O (stereo not shown) [I-72] | A (A (>75% o)) | 100 to 500 | – | –
4 | Cc1cc(S(=O)(=O)N2CC3(CCC(CN4CCN(c5ccc6c(c5F)n(C)c(=O)n6C5CCC(=O)NC5=O)CC4)CC3)C2)ccc1Nc1ncc2cc(Cl)c(=O)n(C3CCCC3)c2n1 (stereo not shown) [I-824] | D (D (<25%)) | – | E | –
5 | Cc1cc(S(=O)(=O)NCCO[C@H]2CC[C@H](CN3CC(c4ccc5c(c4)n(C)c(=O)n5C4CCC(=O)NC4=O)C3)CC2)ccc1Nc1ncc2cc(Cl)c(=O)n(C3CCCC3)c2n1 (stereo partly shown) [I-430] | A (A (>75% o)) | < 100 | – | –
6 | Cc1cc(S(=O)(=O)NC2(C)CCN(CC3(F)CCN(c4ccc(C5CCC(=O)NC5=O)cc4)CC3)CC2)ccc1Nc1ncc(C(F)(F)F)c(N2CCC[C@](C)(O)C2)n1 (stereo partly shown) [I-808] | A (A (>75% o)) | < 100 | – | –
7 | Cc1cc(S(=O)(=O)NC2CCC(CN3CCN(c4cccc5c4n(C)c(=O)n5C4CCC(=O)NC4=O)CC3)CC2)ccc1Nc1ncc(C(F)(F)F)c(N2CCCC(C)(O)C2)n1 (stereo not shown) [I-1145] | A (A (>75% o)) | < 100 | – | –
8 | Cc1cc(S(=O)(=O)NC2CCN(CC3(C)CN(c4ccc(C5CCC(=O)NC5=O)c(Cl)c4)C3)CC2)ccc1Nc1ncc(C(F)(F)F)c(N2CCC[C@](C)(O)C2)n1 (stereo partly shown) [I-910] | B (B (>50% -75%)) | 100 to 500 | – | –
9 | Cc1cc(S(=O)(=O)NC2(C)CC(N3CCN(CC4CCN(c5ccc6c(c5F)n(C)c(=O)n6C5CCC(=O)NC5=O)CC4)CC3)C2)ccc1Nc1ncc(C(F)(F)F)c(N2CCCC(C)(O)C2)n1 (stereo not shown) [I-666] | A (A (>75% o)) | < 100 | – | –
10 | Cc1cc(S(=O)(=O)NC2CC(N3CCN(CC4CCN(c5cccc(C6CCC(=O)NC6=O)c5)CC4)CC3)C2)ccc1Nc1ncc(C(F)(F)F)c(N2CCCC(C)(O)C2)n1 (stereo not shown) [I-718] | A (A (>75% o)) | 100 to 500 | – | –
11 | Cc1cc(S(=O)(=O)C2CC3(CCN(CC4CCN(c5ccc6c(c5F)n(C)c(=O)n6C5CCC(=O)NC5=O)CC4)CC3)C2)ccc1Nc1ncc2c(n1)N(C1CCCC1)C(=O)C2(C)C (stereo not shown) [I-524] | A (A (>75% o)) | < 100 | – | –
12 | Cc1cc(S(=O)(=O)NC(C)COC2CN(CC3CCN(c4ccc5c(c4F)n(C)c(=O)n5C4CCC(=O)NC4=O)CC3)C2)ccc1Nc1ncc(C(F)(F)F)c(C2CCC(C)(O)CC2)n1 (racemic) [I-852] | B (B (>50% -75%)) | < 100 | – | –
13 | Cc1cc(S(=O)(=O)[C@H]2CC[C@H](CN(C)C3CCN(c4cccc5c4n(C)c(=O)n5C4CCC(=O)NC4=O)CC3)CC2)ccc1Nc1ncc2ccc(=O)n(C3CCCC3)c2n1 (stereo partly shown) [I-63] | A (A (>75% o)) | < 100 | – | –
14 | Cc1cc(S(=O)(=O)CCCO[C@H]2CC[C@H](CN3CCC(c4ccc5c(c4)n(C)c(=O)n5C4CCC(=O)NC4=O)CC3)CC2)ccc1Nc1ncc2cc(Cl)c(=O)n(C3CCCC3)c2n1 (stereo partly shown) [I-3, 3-[5-[1-[[4-[3-[4-[(6-Chloro-8-cyclopentyl-7-oxo-pyrido[2,3-d]pyrimidin-2-yl)amino]-3-methyl-phenyl]sulfonylpropoxy]cyclohexyl]methyl]-4-piperidyl]-3-methyl-2-oxo-benzimidazol-1-yl]piperidine-2,6-dione] | – | < 100 | – | > 75
15 | Cc1cc(S(=O)(=O)C2CC3(CCN(CC4CCN(c5ccc(N6CCC(=O)NC6=O)cc5)CC4)CC3)C2)ccc1Nc1ncc2cc(Cl)c(=O)n(C3CCCC3)c2n1 [I-79] | B (B (>50% -75%)) | 100 to 500 | – | –
16 | Cc1cc(S(=O)(=O)N2CCC(CN(C)C3CCN(c4cccc5c4n(C)c(=O)n5C4CCC(=O)NC4=O)CC3F)CC2)ccc1Nc1ncc2cc(Cl)c(=O)n(C3CCCC3)c2n1 (stereo not shown) [I-823] | A (A (>75% o)) | < 100 | – | –
17 | Cc1cc(S(=O)(=O)[C@H]2CC[C@H](CN(C)C3CCN(c4cccc5c4n(C)c(=O)n5C4CCC(=O)NC4=O)CC3)CC2)ccc1Nc1ncc2c(n1)N(C1CCCC1)C(=O)C21CC1 (stereo partly shown) [I-53] | A (A (>75% o)) | < 100 | – | –
18 | Cc1cc(S(=O)(=O)NCCOCCOCCOCCCc2ccc3c(c2)n(C)c(=O)n3C2CCC(=O)NC2=O)ccc1Nc1ncc2cc(Cl)c(=O)n(C3CCCC3)c2n1 (stereo not shown) [I-461] | A (A (>75% o)) | < 100 | – | –
19 | Cc1cc(S(=O)(=O)NC2CCC(CN3CCN(c4ccc(C(=O)NC5CCC(=O)NC5=O)cc4C)CC3)CC2)ccc1Nc1ncc(C(F)(F)F)c(N2CCCC(C)(O)C2)n1 (stereo not shown) [I-1126] | A (A (>75% o)) | 100 to 500 | – | –
20 | Cc1cc(S(=O)(=O)C2CCN(CCN3CCN(c4cccc5c4n(C)c(=O)n5C4CCC(=O)NC4=O)CC3=O)CC2)ccc1Nc1ncc2cc(Cl)c(=O)n(C3CCCC3)c2n1 (stereo not shown) [I-43] | A (A (>75% o)) | 100 to 500 | – | –
21 | Cc1nc(S(=O)(=O)NC2CCC(CN3CCN(c4ccc(C5CCC(=O)NC5=O)c(F)c4)CC3)CC2)ccc1Nc1ncc(C(F)(F)F)c(N2CCCC(C)(O)C2)n1 (stereo not shown) [I-1049] | A (A (>75% o)) | < 100 | – | –
22 | Cc1cc(S(=O)(=O)NC2CCC(CN3CCN(c4cccc(NC5CCC(=O)NC5=O)c4)CC3)CC2)ccc1Nc1ncc(C(F)(F)F)c(N2CCCC(C)(O)C2)n1 (stereo not shown) [I-775] | A (A (>75% o)) | < 100 | – | –

Now from value to compound, other results behind:

Row | CDK2 degradation 14 h: Average Dmax % (14 h incubation) | DC50 (14 h incubation) [nM] | CDK2 degradation 14 h: Mean external-Abs DC50 (nM) (14 h incubation) | Compound | Dmax (MKN-1, 14 h incubation) [%]
23 | A (A (>75% o)) | < 100 | – | Cc1cc(S(=O)(=O)NCCOCCOCCOCCOCCNc2cccc3c2C(=O)N(C2CCC(=O)NC2=O)C3=O)ccc1Nc1ncc2cc(C(F)F)c(=O)n(C3CCCC3(C)O)c2n1 (stereo not shown) [I-483] | –
24 | A (A (>75% o)) | < 100 | – | Cc1cc(S(=O)(=O)NCCOCCOCCCc2ccc3c(c2)n(C)c(=O)n3C2CCC(=O)NC2=O)ccc1Nc1ncc2cc(C(F)F)c(=O)n(C3CCCC3(C)O)c2n1 (stereo not shown) [I-484] | –
25 | A (A (>75% o)) | < 100 | – | Cc1cc(S(=O)(=O)NCCN2CCN(CC3CCN(c4ccc5c(c4)n(C)c(=O)n5C4CCC(=O)NC4=O)CC3)CC2)ccc1Nc1ncc2cc(Cl)c(=O)n(C(C)C)c2n1 (stereo not shown) [I-397] | –
26 | A (A (>75% o)) | < 100 | – | Cc1cc(S(=O)(=O)C2CC3(CCN(CC4CCN(c5cccc6c5n(C)c(=O)n6C5CCC(=O)NC5=O)CC4)CC3)C2)ccc1Nc1ncc(C(F)(F)F)c(N2CCC(C(C)(C)O)C2)n1 (stereo not shown) [I-841] | –
27 | A (A (>75% o)) | < 100 | – | Cc1cc(S(=O)(=O)NCCO[C@H]2C[C@H](CN3CCC(c4ccc5c(c4)n(C)c(=O)n5C4CCC(=O)NC4=O)CC3)C2)ccc1Nc1ncc2cc(Cl)c(=O)n(C3CCCC3)c2n1 (stereo partly shown) [I-429] | –
28 | A (A (>75% o)) | < 100 | – | CC1CC(NS(=O)(=O)c2ccc(Nc3ncc(C(F)(F)F)c(N4CCCC(C)(O)C4)n3)c(F)c2)CCN1CC1CCN(c2ccc(C3CCC(=O)NC3=O)c(F)c2)CC1 (stereo not shown) [I-1059] | –
29 | A (A (>75% o)) | < 100 | – | Cc1cc(S(=O)(=O)NCCCN2CCN(CC3CCN(c4ccc5c(c4)n(C)c(=O)n5C4CCC(=O)NC4=O)CC3)CC2)ccc1Nc1ncc2cc(Cl)c(=O)n(C(C)C)c2n1 (stereo not shown) [I-400] | –
30 | A (A (>75% o)) | < 100 | – | Cc1cc(S(=O)(=O)C2CC3(CCN(CC4CCN(c5cccc6c5n(C)c(=O)n6C5CCC(=O)NC5=O)CC4)CC3)C2)ccc1Nc1ncc2cc(C(F)F)c(=O)n(C3CCCC3)c2n1 (stereo not shown) [I-86] | –
31 | A (A (>75% o)) | < 100 | – | Cc1cc(S(=O)(=O)NC2CCN(CC3CCN(c4ccc(C5CCC(=O)NC5=O)cc4F)CC3)CC2F)ccc1Nc1ncc(C(F)(F)F)c(N2CCCC(C)(O)C2)n1 (stereo not shown) [I-1055] | –
32 | – | < 100 | – | Cc1cc(S(=O)(=O)CCCO[C@H]2CC[C@H](CN3CCC(c4ccc5c(c4)n(C)c(=O)n5C4CCC(=O)NC4=O)CC3)CC2)ccc1Nc1ncc(C(F)(F)F)c(-c2cnn(C)c2)n1 (stereo partly shown) [I-68] | –
33 | A (A (>75% o)) | < 100 | – | Cc1cc(S(=O)(=O)C2CC3(CCN(CC4CCN(c5ccc6c(c5F)n(C)c(=O)n6C5CCC(=O)NC5=O)CC4)CC3)C2)ccc1Nc1cc2c(ccc(=O)n2C2CCCC2)cn1 (stereo not shown) [I-286] | –
34 | B (B (>50% -75%)) | < 100 | – | Cc1cc(S(=O)(=O)C2CC3(CCN(CC4CCN(c5ccc(NC6CCC(=O)NC6=O)cc5F)CC4)CC3)C2)ccc1Nc1ncc2cc(Cl)c(=O)n(C3CCCC3)c2n1 (stereo not shown) [I-36] | –
35 | B (B (>50% -75%)) | < 100 | – | Cc1cc(S(=O)(=O)C2CCN(C(=O)CN3CCN(c4cccc5c4n(C)c(=O)n5C4CCC(=O)NC4=O)CC3)CC2)ccc1Nc1ncc2cc(Cl)c(=O)n(C3CCCC3)c2n1 (stereo not shown) [I-48] | –
36 | B (B (>50% -75%)) | < 100 | – | Cc1cc(S(=O)(=O)NCCOC2CCC(CN3CCC(c4ccc5c(c4)n(C)c(=O)n5C4CCC(=O)NC4=O)CC3)CC2)ccc1Nc1ncc(C(F)(F)F)c(C2CCC(C)(O)CC2)n1 (stereo not shown) [I-519] | –
37 | A (A (>75% o)) | < 100 | – | Cc1cc(S(=O)(=O)NCCOC2CCC(CN3CCN(c4ccc(NC5CCC(=O)NC5=O)cc4C)CC3)CC2)ccc1Nc1ncc2cc(Cl)c(=O)n(C3CCCC3)c2n1 (stereo not shown) [I-308] | –
